From patent US8952024B2, “Herbicidal pyrimidone derivatives” (E I du Pont de Nemours and Company, priority 2009, dated 2015)

Columns and labels:
Assay type in all cases: in vivo
kochia (Kochia scoparia) = assay: Test B pre-/postemergence plant response
Method in brief: (§1)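 Visually scored on a 0 to 100 scale after 13 to 15 days in greenhouse versus controls. Treatments were preemergence on seeded loam/sand soil and postemergence on 1- to 4-leaf plants.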

[1] = test system: bermudagrass (Cynodon dactylon); assay: Test B pre-/postemergence plant response
Method in brief: as §1

[2] = test system: lambsquarters (Chenopodium album); assay: Test B pre-/postemergence plant response
Method in brief: as §1

[3] = test system: johnsongrass (Sorghum halepense); assay: Test B pre-/postemergence plant response
Method in brief: as §1

[4] = test system: cocklebur (Xanthium strumarium); assay: Test B pre-/postemergence plant response; conditions: Preemergence; for Plant response rating, Cocklebur: scale 0 to 100, 0 no effect, 100 complete control
Method in brief: as §1

corn (Zea mays) = assay: Test B pre-/postemergence plant response
Method in brief: as §1

[5] = test system: giant foxtail (Setaria faberii); assay: Test B pre-/postemergence plant response
Method in brief: as §1

[6] = test system: ragweed (common ragweed, Ambrosia elatior); assay: Test B pre-/postemergence plant response
Method in brief: as §1

[7] = test system: green foxtail (Setaria viridis); assay: Test B pre-/postemergence plant response
Method in brief: as §1

wild oat (Avena fatua) = assay: Test B pre-/postemergence plant response
Method in brief: as §1

[8] = test system: pigweed (Amaranthus retroflexus); assay: Test B pre-/postemergence plant response
Method in brief: as §1

soybean (Glycine max) = assay: Test B pre-/postemergence plant response
Method in brief: as §1

[9] = test system: barnyardgrass (Echinochloa crus-galli); assay: Test B flooded paddy test; conditions: for Plant response rating, Barnyardgrass: Flood (flooded paddy test), 13 to 15 days
Method in brief: (§2)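 Visual scores run from 0 (no effect) to 100 (complete control), assigned by comparison with controls 13 to 15 days after treatment. Test compounds went straight into water standing 3 cm above the soil, around plants at the 2-leaf stage kept in a greenhouse.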

rice (Oryza sativa) = assay: Test B flooded paddy test; conditions: for Plant response rating, Rice: Flood (flooded paddy test), 13 to 15 days
Method in brief: as §2

[10] = test system: ducksalad (Heteranthera limosa); assay: Test B flooded paddy test; conditions: for Plant response rating, Ducksalad: Flood (flooded paddy test), 13 to 15 days
Method in brief: as §2

[11] = test system: umbrella sedge (Cyperus difformis); assay: Test B flooded paddy test; conditions: for Plant response rating, Sedge, Umbrella: Flood (flooded paddy test), 13 to 15 days
Method in brief: as §2

[12] = Postemergence, 31 g ai/ha, 0 to 100 scale (0 no effect, 100 complete control)
[13] = Postemergence, 125 g ai/ha, scale 0 (no effect) to 100 (complete control), 13 to 15 days
[14] = Postemergence, 250 g ai/ha, scale 0 to 100 (0 no effect, 100 complete control), 13 to 15 days
[15] = Postemergence, 62 g ai/ha, scale 0 to 100 (0 no effect, 100 complete control)
[16] = Preemergence, 31 g ai/ha, scale 0 to 100 (0 no effect, 100 complete control)
[17] = Preemergence, 62 g ai/ha, scale 0 to 100, 0 no effect, 100 complete control
[18] = Preemergence, 125 g ai/ha, scale 0 to 100, 0 no effect, 100 complete control
[19] = Preemergence, 250 g ai/ha, 0 to 100 scale
[20] = 250 g ai/ha, flooded paddy test, visual rating on 0 to 100 scale (0 no effect, 100 complete control) after 13 to 15 days
[21] = 62 g ai/ha, scale of 0 to 100 where 0 is no effect and 100 is complete control
[22] = 125 g ai/ha, scale 0 to 100, 0 is no effect, 100 is complete control
[23] = Flood, 31 g ai/ha, scale 0 to 100 (0 no effect, 100 complete control)

SMILES: COCCCn1c(-c2cc(F)cc(F)c2)ncc(C(=O)C2=C(O)C3CCC(C3)C2=O)c1=O (centres unmarked) [Compound 244]
- Plant response rating, Kochia (kochia (Kochia scoparia); [12]): 85
- Plant response rating, Kochia (kochia (Kochia scoparia); [13]): 100
- Plant response rating, Kochia (kochia (Kochia scoparia); [14]): 100
- Plant response rating, Kochia (kochia (Kochia scoparia); [15]): 90
- Plant response rating, Kochia (kochia (Kochia scoparia); [16]): 85
- Plant response rating, Kochia (kochia (Kochia scoparia); [17]): 90
- Plant response rating, Kochia (kochia (Kochia scoparia); [18]): 95
- Kochia plant response rating (kochia (Kochia scoparia); [19]): 100
- Plant response rating, Bermudagrass [1, 12]: 80
- Plant response rating, Bermudagrass [1, 13]: 100
- Plant response rating, Bermudagrass [1, 14]: 100
- Plant response rating, Bermudagrass [1, 15]: 100
- Plant response rating, Bermudagrass [1, 16]: 100
- Plant response rating, Bermudagrass [1, 17]: 100
- Plant response rating, Bermudagrass [1, 18]: 100
- Bermudagrass plant response rating ([1]; Preemergence, 250 g ai/ha, 0 to 100 scale, 0 no effect, 100 complete control): 100
- Plant response rating, Lambsquarters [2, 12]: 100
- Plant response rating, Lambsquarters [2, 13]: 100
- Plant response rating, Lambsquarters [2, 14]: 100
- Plant response rating, Lambsquarters [2, 15]: 100
- Plant response rating, Lambsquarters [2, 16]: 100
- Plant response rating, Lambsquarters [2, 17]: 100
- Plant response rating, Lambsquarters [2, 18]: 100
- Lambsquarters plant response rating [2, 19]: 100
- Plant response rating, Johnsongrass [3, 12]: 85
- Plant response rating, Johnsongrass [3, 13]: 100
- Plant response rating, Johnsongrass [3, 14]: 100
- Plant response rating, Johnsongrass [3, 15]: 95
- Plant response rating, Johnsongrass [3, 16]: 70
- Plant response rating, Johnsongrass [3, 17]: 85
- Plant response rating, Johnsongrass [3, 18]: 100
- Johnsongrass plant response rating [3, 19]: 100
- Plant response rating, Cocklebur ([4]; 62 g ai/ha): 90
- Plant response rating, Cocklebur ([4]; 125 g ai/ha): 100
- Cocklebur plant response rating ([4]; 250 g ai/ha, 0 to 100 scale): 100
- Plant response rating, Corn (corn (Zea mays); [12]): 85
- Plant response rating, Corn (corn (Zea mays); [13]): 95
- Plant response rating, Corn (corn (Zea mays); [14]): 100
- Plant response rating, Corn (corn (Zea mays); [15]): 90
- Plant response rating, Corn (corn (Zea mays); [16]): 5
- Plant response rating, Corn (corn (Zea mays); [17]): 25
- Plant response rating, Corn (corn (Zea mays); [18]): 60
- Corn plant response rating (corn (Zea mays); [19]): 85
- Plant response rating, Foxtail, Giant [5, 12]: 95
- Plant response rating, Foxtail, Giant [5, 13]: 95
- Plant response rating, Foxtail, Giant [5, 14]: 100
- Plant response rating, Foxtail, Giant [5, 15]: 95
- Plant response rating, Foxtail, Giant [5, 16]: 60
- Plant response rating, Foxtail, Giant [5, 17]: 80
- Plant response rating, Foxtail, Giant [5, 18]: 100
- Foxtail, Giant plant response rating [5, 19]: 100
- Plant response rating, Ragweed [6, 12]: 98
- Plant response rating, Ragweed [6, 13]: 98
- Plant response rating, Ragweed [6, 14]: 100
- Plant response rating, Ragweed [6, 15]: 98
- Plant response rating, Ragweed [6, 16]: 70
- Plant response rating, Ragweed [6, 17]: 95
- Plant response rating, Ragweed [6, 18]: 100
- Ragweed plant response rating [6, 19]: 100
- Plant response rating, Foxtail, Green [7, 12]: 85
- Plant response rating, Foxtail, Green [7, 13]: 98
- Plant response rating, Foxtail, Green [7, 14]: 100
- Plant response rating, Foxtail, Green [7, 15]: 98
- Plant response rating, Foxtail, Green [7, 16]: 0
- Plant response rating, Foxtail, Green [7, 17]: 45
- Plant response rating, Foxtail, Green [7, 18]: 90
- Foxtail, Green plant response rating [7, 19]: 90
- Plant response rating, Oat, Wild (wild oat (Avena fatua); [12]): 50
- Plant response rating, Oat, Wild (wild oat (Avena fatua); [13]): 95
- Plant response rating, Oat, Wild (wild oat (Avena fatua); [14]): 98
- Plant response rating, Oat, Wild (wild oat (Avena fatua); [15]): 70
- Plant response rating, Oat, Wild (wild oat (Avena fatua); [16]): 0
- Plant response rating, Oat, Wild (wild oat (Avena fatua); [17]): 5
- Plant response rating, Oat, Wild (wild oat (Avena fatua); [18]): 10
- Oat, Wild plant response rating (wild oat (Avena fatua); [19]): 40
- Plant response rating, Pigweed [8, 12]: 95
- Plant response rating, Pigweed [8, 13]: 100
- Plant response rating, Pigweed [8, 14]: 100
- Plant response rating, Pigweed [8, 15]: 100
- Plant response rating, Pigweed [8, 16]: 100
- Plant response rating, Pigweed [8, 17]: 100
- Plant response rating, Pigweed [8, 18]: 100
- Pigweed plant response rating [8, 19]: 100
- Plant response rating, Soybean (soybean (Glycine max); [12]): 85
- Plant response rating, Soybean (soybean (Glycine max); [13]): 100
- Plant response rating, Soybean (soybean (Glycine max); [14]): 100
- Plant response rating, Soybean (soybean (Glycine max); [15]): 100
- Plant response rating, Soybean (soybean (Glycine max); [16]): 70
- Plant response rating, Soybean (soybean (Glycine max); [17]): 80
- Plant response rating, Soybean (soybean (Glycine max); [18]): 90
- Soybean plant response rating (soybean (Glycine max); [19]): 95
- Plant response rating, Flood, Barnyardgrass [9, 20]: 75
- Plant response rating, Barnyardgrass [9, 21]: 20
- Plant response rating, Barnyardgrass [9, 22]: 40
- Barnyardgrass plant response rating [9, 23]: 0
- Plant response rating, Flood, Rice (rice (Oryza sativa); [20]): 85
- Plant response rating, Rice (rice (Oryza sativa); [21]): 0
- Plant response rating, Rice (rice (Oryza sativa); [22]): 60
- Rice plant response rating (rice (Oryza sativa); [23]): 0
- Plant response rating, Flood, Ducksalad [10, 20]: 100
- Plant response rating, Ducksalad [10, 21]: 80
- Plant response rating, Ducksalad [10, 22]: 100
- Ducksalad plant response rating [10, 23]: 35
- Plant response rating, Flood, Sedge, Umbrella [11, 20]: 100
- Plant response rating, Sedge, Umbrella [11, 21]: 0
- Plant response rating, Sedge, Umbrella [11, 22]: 100
- Sedge, Umbrella plant response rating [11, 23]: 0
